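Method: 48-hour compound exposure of cells in 96-well plates, five concentrations, linear interpolation of endpoints. Abbreviation: GI50, concentration required for 50% inhibition of growth.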 Calls of active or inactive are those of the source. Cut-off read from the data, not from the text of the source: active = GI50 up to about 1.1 µM and inactive = higher.
Assays:
Test in all cases: growth of human tumour cells (NCI), 48 h
[1] = tested on: HOP-92
[2] = tested on: M14
[3] = tested on: SK-MEL-5
[4] = tested on: MDA-MB-435
[5] = tested on: SNB-19
[6] = tested on: A498
[7] = tested on: HOP-62
[8] = tested on: OVCAR-8
[9] = tested on: SK-OV-3
[10] = tested on: DU-145
[11] = tested on: KM12
[12] = tested on: Malme-3M
[13] = tested on: T47D
[14] = tested on: RXF 393
[15] = tested on: OVCAR-4
[16] = tested on: K562
[17] = tested on: COLO 205
[18] = tested on: OVCAR-5
[19] = tested on: SF-295

Row | SMILES | GI50 [1] | GI50 [2] | GI50 [3] | GI50 [4] | GI50 [5] | GI50 [6] | GI50 [7] | GI50 [8] | GI50 [9] | GI50 [10] | GI50 [11] | GI50 [12] | GI50 [13] | GI50 [14] | GI50 [15] | GI50 [16] | GI50 [17] | GI50 [18] | GI50 [19]
1 | NCC(O)CN.Oc1c(Cl)c(Cl)c(Cl)c(Cl)c1Cl | 20.7 µM (inactive) | 19.7 µM (inactive) | 14.4 µM (inactive) | 34.4 µM (inactive) | 21 µM (inactive) | 17.8 µM (inactive) | 16.2 µM (inactive) | 20.2 µM (inactive) | 21.6 µM (inactive) | 31.6 µM (inactive) | 20.2 µM (inactive) | 17.5 µM (inactive) | 22.5 µM (inactive) | 27 µM (inactive) | 35.9 µM (inactive) | 27.9 µM (inactive) | 21 µM (inactive) | 18 µM (inactive) | 17.6 µM (inactive)
2 | COc1ccc2c(=O)cc(-c3ccncc3)oc2c1OC | 17.7 µM (inactive) | 19.8 µM (inactive) | 17.5 µM (inactive) | 31.6 µM (inactive) | 31.4 µM (inactive) | 14.7 µM (inactive) | 30.8 µM (inactive) | 24.9 µM (inactive) | 41 µM (inactive) | 24.7 µM (inactive) | 26.4 µM (inactive) | 30.4 µM (inactive) | 48.8 µM (inactive) | 24.9 µM (inactive) | 46.1 µM (inactive) | 38.3 µM (inactive) | 15 µM (inactive) | 24.6 µM (inactive) | 20.9 µM (inactive)
3 | CCN(CC)CCCNc1[nH]c2ccccc2c2nc3ccc(OC)cc3c1-2 | 2.13 µM (inactive) | 1.71 µM (inactive) | 1.73 µM (inactive) | 1.6 µM (inactive) | 1.59 µM (inactive) | 2.12 µM (inactive) | 1.43 µM (inactive) | 0.824 µM (active) | 3.08 µM (inactive) | 2.64 µM (inactive) | 0.695 µM (active) | 1.76 µM (inactive) | 10 µM (inactive) | 1.59 µM (inactive) | 1.21 µM (inactive) | 1.27 µM (inactive) | 1.32 µM (inactive) | 1.28 µM (inactive) | 1.17 µM (inactive)
4 | Cc1cccc(C(=O)O)c1CC1NCCC2c3ccccc3NC12 (centres undefined) | > 100 µM (inactive) | > 100 µM (inactive) | > 100 µM (inactive) | > 100 µM (inactive) | > 100 µM (inactive) | > 100 µM (inactive) | > 100 µM (inactive) | > 100 µM (inactive) | > 100 µM (inactive) | > 100 µM (inactive) | > 100 µM (inactive) | > 100 µM (inactive) | > 100 µM (inactive) | > 100 µM (inactive) | > 100 µM (inactive) | > 100 µM (inactive) | > 100 µM (inactive) | > 100 µM (inactive) | > 100 µM (inactive)
5 | COC(=O)c1c(O)ccc2c1C1(Cc3ccccc3C1=O)C(O)O2 (centres undefined) | 16.6 µM (inactive) | 17.3 µM (inactive) | 34.3 µM (inactive) | 13.4 µM (inactive) | 43.4 µM (inactive) | > 100 µM (inactive) | 13.8 µM (inactive) | 14.5 µM (inactive) | 20.2 µM (inactive) | 24.4 µM (inactive) | 25.4 µM (inactive) | 21.7 µM (inactive) | 18.2 µM (inactive) | 51.5 µM (inactive) | 16.2 µM (inactive) | 12.8 µM (inactive) | 35.6 µM (inactive) | 17.5 µM (inactive) | 42.3 µM (inactive)
6 | CCOc1cc(NC(C)=O)ccc1C(=O)NN1C(=O)C(Cl)C1c1ccc(O)c(OC)c1 (centres undefined) | 16.4 µM (inactive) | 11.8 µM (inactive) | 10.4 µM (inactive) | 12.6 µM (inactive) | 15.8 µM (inactive) | 14.6 µM (inactive) | 16.1 µM (inactive) | 24.4 µM (inactive) | 17.3 µM (inactive) | 15.6 µM (inactive) | 17.6 µM (inactive) | 8 µM (inactive) | 12.2 µM (inactive) | 12 µM (inactive) | 12.8 µM (inactive) | 5.11 µM (inactive) | 15.6 µM (inactive) | 19.1 µM (inactive) | 21.3 µM (inactive)
7 | c1csc(-c2cc(-c3cccs3)c(-c3cccs3)s2)c1 | 91.8 µM (inactive) | 47 µM (inactive) | 33.2 µM (inactive) | 37.8 µM (inactive) | > 100 µM (inactive) | > 100 µM (inactive) | > 100 µM (inactive) | > 100 µM (inactive) | > 100 µM (inactive) | > 100 µM (inactive) | 46.5 µM (inactive) | 62.2 µM (inactive) | 4.69 µM (inactive) | 61.5 µM (inactive) | > 100 µM (inactive) | 79.1 µM (inactive) | 40.6 µM (inactive) | > 100 µM (inactive) | > 100 µM (inactive)
8 | COCCCNC(=O)C1=C(C)NC(C)=C(C(=O)NCCCOC)C1 | 89.3 µM (inactive) | > 100 µM (inactive) | > 100 µM (inactive) | > 100 µM (inactive) | > 100 µM (inactive) | > 100 µM (inactive) | > 100 µM (inactive) | > 100 µM (inactive) | > 100 µM (inactive) | > 100 µM (inactive) | > 100 µM (inactive) | 18.1 µM (inactive) | > 100 µM (inactive) | > 100 µM (inactive) | > 100 µM (inactive) | 46 µM (inactive) | > 100 µM (inactive) | > 100 µM (inactive) | > 100 µM (inactive)
9 | COc1ccc(OC)c(NS(=O)(=O)c2ccc3nc(C)n(NS(=O)(=O)c4cc(OC)ccc4OC)c(=O)c3c2)c1 | > 100 µM (inactive) | > 100 µM (inactive) | 26.4 µM (inactive) | 14.3 µM (inactive) | > 100 µM (inactive) | > 100 µM (inactive) | > 100 µM (inactive) | > 100 µM (inactive) | > 100 µM (inactive) | > 100 µM (inactive) | 62.5 µM (inactive) | > 100 µM (inactive) | > 100 µM (inactive) | > 100 µM (inactive) | 93.3 µM (inactive) | 32.6 µM (inactive) | > 100 µM (inactive) | > 100 µM (inactive) | > 100 µM (inactive)
10 | CC(=O)N1C2=CCCC2(C)c2ccccc21 (centres undefined) | 26.9 µM (inactive) | > 100 µM (inactive) | 41.1 µM (inactive) | > 100 µM (inactive) | > 100 µM (inactive) | > 100 µM (inactive) | > 100 µM (inactive) | > 100 µM (inactive) | > 100 µM (inactive) | > 100 µM (inactive) | 64.9 µM (inactive) | 67.5 µM (inactive) | 79.3 µM (inactive) | > 100 µM (inactive) | 77.6 µM (inactive) | 33.8 µM (inactive) | 57.9 µM (inactive) | > 100 µM (inactive) | > 100 µM (inactive)
11 | N#Cc1c(-c2ccccc2)c2c([nH]c1=O)-c1cc([N+](=O)[O-])ccc1CCC2 | 16.4 µM (inactive) | 33.1 µM (inactive) | 27.9 µM (inactive) | 32.3 µM (inactive) | 36.7 µM (inactive) | 19 µM (inactive) | 22.7 µM (inactive) | 34.3 µM (inactive) | 36.3 µM (inactive) | 25.5 µM (inactive) | 32.9 µM (inactive) | 51.8 µM (inactive) | 19.3 µM (inactive) | 12.1 µM (inactive) | 34 µM (inactive) | 34.1 µM (inactive) | 26.9 µM (inactive) | 83.4 µM (inactive) | 18.9 µM (inactive)
12 | CCCN1C(=O)CCC2=C1CCc1c2ccc(Cl)c1Cl | 21.8 µM (inactive) | 31.9 µM (inactive) | 15.4 µM (inactive) | 57.9 µM (inactive) | 26.8 µM (inactive) | 13 µM (inactive) | 38.5 µM (inactive) | 23.2 µM (inactive) | 24.3 µM (inactive) | 5.19 µM (inactive) | 38 µM (inactive) | 61.1 µM (inactive) | 36.7 µM (inactive) | 17.9 µM (inactive) | 26.2 µM (inactive) | 35 µM (inactive) | 51.9 µM (inactive) | 8.41 µM (inactive) | 27 µM (inactive)
13 | COc1nc(N=P(c2ccccc2)(c2ccccc2)c2ccccc2)cc(=O)[nH]1 | > 100 µM (inactive) | > 100 µM (inactive) | > 100 µM (inactive) | > 100 µM (inactive) | > 100 µM (inactive) | > 100 µM (inactive) | > 100 µM (inactive) | > 100 µM (inactive) | > 100 µM (inactive) | > 100 µM (inactive) | > 100 µM (inactive) | > 100 µM (inactive) | > 100 µM (inactive) | > 100 µM (inactive) | > 100 µM (inactive) | > 100 µM (inactive) | > 100 µM (inactive) | > 100 µM (inactive) | > 100 µM (inactive)
14 | C[C@]1(CO)[C@H]2CC[C@@]34C=C[C@@](CO)(CC[C@H]3[C@]2(C)CC[C@H]1O)C4 | > 100 µM (inactive) | 73.6 µM (inactive) | 12.9 µM (inactive) | 77.6 µM (inactive) | 15 µM (inactive) | > 100 µM (inactive) | 62.2 µM (inactive) | 31.1 µM (inactive) | 38.6 µM (inactive) | 42.2 µM (inactive) | 38.1 µM (inactive) | 20.5 µM (inactive) | 12.9 µM (inactive) | 36.9 µM (inactive) | 13.3 µM (inactive) | – | 26.4 µM (inactive) | > 100 µM (inactive) | 57.9 µM (inactive)
15 | COc1cc(OC)c(-c2cc(=O)c3c(OC)c(OC)c(OC)c(OC)c3o2)cc1OC | 11.6 µM (inactive) | > 100 µM (inactive) | 46.8 µM (inactive) | > 100 µM (inactive) | > 87.7 µM (inactive) | > 61.2 µM (inactive) | 36.1 µM (inactive) | 31.3 µM (inactive) | > 100 µM (inactive) | > 100 µM (inactive) | 74.1 µM (inactive) | > 100 µM (inactive) | 8.18 µM (inactive) | 12.7 µM (inactive) | > 90.8 µM (inactive) | > 73.1 µM (inactive) | > 100 µM (inactive) | > 100 µM (inactive) | 28.1 µM (inactive)
